Experimental findings from the NIST ThermoML archive (doi:10.1021/je800596c) are described below.

Data set [1] in a line: Molar enthalpy of transition or fusion. Conditions: Crystal; DSC.
For data set [2] the following is noted: Crystal; DTA.

Numbers after ± are expanded uncertainties.

For the compound `COC(=O)C=Cc1ccc(O)c(OC)c1` [methyl 3-(4-hydroxy-3-methoxyphenyl)-2-propenoate], in data set [1], the “Molar enthalpy of transition or fusion” value turned out to be 6.17 ± 0.179 kcal/mol. Besides, in data set [2], the Normal melting temperature was 62.56 ± 0.5 °C.
In the same order, the values of `COC(=O)/C=C/c1cc(OC)c(O)c(OC)c1` [3,5-dimethoxy-4-hydroxy cinnamic acid methyl ester] are 7.14 ± 0.203 kcal/mol and 88.64 ± 0.5 °C.
In the same order, the values of `COC(=O)C=Cc1ccc(O)cc1` [2-propenoic acid, 3-(4-hydroxyphenyl)-, methyl ester] are 7.22 ± 0.206 kcal/mol and 137.56 ± 0.5 °C.
